Experiment [1] has as its target T1, 20S Human Erythrocyte Proteasome (HEP) (Homo sapiens, UniProt P20618+P28074).
T1 construct: 20S Human Erythrocyte Proteasome (HEP), purchased from Immatics Biotechnologies Inc; purchased Immatics Biotechnologies Inc., Tübingen, Germany; host or cells: human erythrocytes (natural source)
In words: Chymotrypsin-like activity of 20S Human Erythrocyte Proteasome (HEP), IC50 determination. The settings on record: assay of Example C, inhibition of HEP. Type of experiment: biochemical. As for the experimental part: Assay for Chymotrypsin-like Activity of 20S Human Erythrocyte Proteasome (HEP)
Proteasome chymotrypsin-like activity of compounds of the invention was assayed according to the following procedure.
In 96-well microtiter plates, 20S Human Erythrocyte Proteasome (HEP), purchased from Immatics Biotechnologies Inc., Tübingen, Germany was plated at 0.2 μg/mL (about 0.6 nM catalytic sites) in 0.04% SDS 20 mM Tris buffer. A fluorimetric substrate Suc-LLVY-AMC (succinyl-Leu-Leu-Val-Tyr-7-amido-4-methylcoumarin), purchased from Sigma Inc., St. Louis, Mo., USA was added to a final concentration of 100 μM from a stock solution of 10 mM in dimethylsulfoxide. Reaction volumes were 100 μl per well. […] Proteasome activity was determined under conditions in which substrate hydrolysis increased linearly with time and the change in fluorescence signal was proportional to the concentration of free AMC.
Determination of IC50 Values for HEP and α-Chymotrypsin Inhibitors
Inhibition of the chymotrypsin-like activity of HEP and of bovine α-chymotrypsin was determined by incubating the enzyme with various concentrations of putative inhibitors for 15 minutes at 37° C. (or room temperature for α-chymotrypsin) prior to the addition of substrate. Each experimental condition was evaluated in triplicate, and replicate experiments were performed for the inhibitors described herein.

Experiment [2] addresses T2, proteasome in Molt-4 cells (human leukemia) (Homo sapiens, UniProt P20618+P28074).
T2 sequence (P28074 60-263): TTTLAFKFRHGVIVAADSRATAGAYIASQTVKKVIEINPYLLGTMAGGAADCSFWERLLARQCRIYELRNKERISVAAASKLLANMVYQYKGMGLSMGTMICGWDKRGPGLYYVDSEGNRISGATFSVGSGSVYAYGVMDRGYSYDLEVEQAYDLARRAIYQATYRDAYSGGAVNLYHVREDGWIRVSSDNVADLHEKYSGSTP
T2 sequence (P20618 29-241): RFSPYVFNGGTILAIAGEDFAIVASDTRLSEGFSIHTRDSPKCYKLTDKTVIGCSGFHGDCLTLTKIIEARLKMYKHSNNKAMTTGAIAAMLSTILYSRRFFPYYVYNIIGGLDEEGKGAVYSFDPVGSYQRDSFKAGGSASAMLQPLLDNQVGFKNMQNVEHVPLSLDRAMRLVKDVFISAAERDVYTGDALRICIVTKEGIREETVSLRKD
It counts as cell-based. The settings on record: assay of Example E, inhibition of MOLT4; read-out: MOLT4 (EC50). On the procedure:
Cellular Assay for Chymotrypsin-like activity of Proteasome in Molt-4 Cell Line
The chymotrypsin-like activity of proteasome in Molt-4 cells (human leukemia) was assayed according to the following procedure. A brief description of the method was published previously (Harding et al., J. Immunol., 1995, 155, 1767).
Molt-4 cells were washed and resuspended in HEPES-buffered Saline (5.4 mM KCl, 120 mM NaCl, 25 mM Glucose, 1.5 mM MgSO4, 1 mM Na pyruvate, 20 mM Hepes) and plated in 96-well microtiter white plates to a final concentration of 6×10^6 cells/mL. Then various 5× proteasome inhibitor concentrations (or diluted DMSO for controls), prepared from 250×DMSO solutions by diluting 50-fold using HEPES-buffered saline, were added to the plate to a final 1× concentration. After 15 minutes incubation at 37° C., a fluorimetric cell permeable substrate (MeOSuc-FLF-AFC) (methoxysuccinyl-Phe-Leu-Phe-7-amido-4-trifluoromethylcoumarin) purchased from Enzyme Systems Products, catalogue number AFC-88, was added to each well at a final concentration of 25 μM from a stock solution of 20 mM in DMSO. Reaction volumes were 100 μl per well.
The concentration of free AFC was monitored every 1.5 min for 30 min ([…]) on a Polastar Optima, BMG Labtechnologies microplate reader, using an excitation wavelength of 390 nm and emission wavelength of 520 nm. Proteasome activity was determined under conditions in which substrate hydrolysis increased linearly with time and the change in fluorescent signal was proportional to the concentration of free AFC.
Determination of EC50 Values for Proteasome Inhibitors in MOLT-4 Cell Line
Inhibition of chymotrypsin-like activity of proteasome in Molt-4 cells was determined by incubating cells with various concentrations of putative inhibitors for 15 minutes at 37° C. prior to the addition of substrate. Each experimental condition was evaluated in triplicate, and replicate experiments were performed for the inhibitors described herein.

Results on 15 compounds are retold here after US8546608B2, “Proteasome inhibitors and methods of using the same” (Cephalon, Inc., priority 2003, dated 2013).

Where a name gives a salt, the structure may show the parent alone.

One may read the IC50 as the point on the concentration scale where inhibition reaches its midpoint. In general, EC50 refers to the concentration giving half of the maximal effect. In experiment [1], `CCCCCCCCCC(=O)N[C@@H](CCCNC(=N)N[N+](=O)[O-])C(=O)N[C@@H](CC(C)C)B1O[C@@H]2C[C@@H]3C[C@@H](C3(C)C)[C@]2(C)O1` [D.3.1, Decanamide,N-[(1S)-1-[[[(1R)-1-[(3aS,4S,6S,7aR)-hexahydro-3a,5,5-trimethyl-4,6-methano-1,3,2-benzodioxaborol-2-yl]-3-methylbutyl]amino]carbonyl]-4-[[imino(nitroamino)methyl]amino]butyl]] returned an IC50 of less than 10 nM. The half-maximal effective concentration (EC50) in experiment [2] is less than 200 nM.
The corresponding values for `CC(C)C[C@H](NC(=O)[C@H](CCCNC(=N)N[N+](=O)[O-])NC(=O)CCc1ccccc1)B1O[C@@H]2C[C@@H]3C[C@@H](C3(C)C)[C@]2(C)O1` [D.3.49, 3-Phenylpropanamide,N-[(1S)-1-[[[(1R)-1-[(3aS,4S,6S,7aR)-hexahydro-3a,5,5-trimethyl-4,6-methano-1,3,2-benzodioxaborol-2-yl]-3-methylbutyl]amino]carbonyl]-4-[[imino(nitroamino)methyl]amino]butyl]] are less than 10 nM and 200 to 2000 nM.
In the case of `CC(C)C[C@H](NC(=O)[C@H](CCCNC(=N)N[N+](=O)[O-])NC(=O)CCCCCCCCC#N)B1O[C@@H]2C[C@@H]3C[C@@H](C3(C)C)[C@]2(C)O1` [D.3.186, 9-Cyanononamide, N-[(1S)-1-[[[(1R)-1-[(3aS,4S,6S,7aR)-hexahydro-3a,5,5-trimethyl-4,6-methano-1,3,2-benzodioxaborol-2-yl]-3-methylbutyl]amino]carbonyl]-4-[[imino(nitroamino)methyl]amino]butyl]], in experiment [1], the IC50 was less than 10 nM. Moreover, the EC50 in experiment [2] is less than 200 nM.
The corresponding values for `COCCOCCOCC(=O)N[C@@H](CCCNC(=N)N[N+](=O)[O-])C(=O)N[C@@H](CC(C)C)B(O)O` [E.1.8, Boronic acid, [(1R)-1-[[(2S)-5-[[imino(nitroamino)methyl]amino]-2-[[2-[2-(2-methoxyethoxy)ethoxy]acetyl]amino]-1-oxopentyl]amino]-3-methylbutyl]] are less than 10 nM and greater than 10000 nM.
For the compound `CCCCCCCCCCCCC(=O)N[C@H](C(=O)N[C@@H](CC(C)C)B1O[C@@H]2C[C@@H]3C[C@@H](C3(C)C)[C@]2(C)O1)[C@@H](C)O` [D.8.5, Tridecanamide, N-[(1S,2R)-1-[[[(1R)-1-[(3aS,4S,6S,7aR)-hexahydro-3a,5,5-trimethyl-4,6-methano-1,3,2-benzodioxaborol-2-yl]-3-methylbutyl]amino]carbonyl]-2-hydroxypropyl]], in experiment [1], the half-inhibitory concentration (IC50) was less than 10 nM. Also, the concentration giving a half-maximal response (EC50) in experiment [2] is less than 200 nM.
With `CC(C)C[C@H](NC(=O)[C@H](CCCNC(=N)N[N+](=O)[O-])NC(=O)CCCc1cccs1)B1O[C@@H]2C[C@@H]3C[C@@H](C3(C)C)[C@]2(C)O1` [D.3.126, 4-(Thiophen-2-yl)butanamide,N-[(1S)-1-[[[(1R)-1-[(3aS,4S,6S,7aR)-hexahydro-3a,5,5-trimethyl-4,6-methano-1,3,2-benzodioxaborol-2-yl]-3-methylbutyl]amino]carbonyl]-4-[[imino(nitroamino)methyl]amino]butyl]], the IC50 in experiment [1] was less than 10 nM. Moreover, the EC50 in experiment [2] is less than 200 nM.
In turn, `CC(=O)NCCCCCC(=O)N[C@@H](CCCNC(=N)N[N+](=O)[O-])C(=O)N[C@@H](CC(C)C)B(O)O` [E.2.75, Boronic acid, [(1R)-1-[[(2S)-5-[[imino(nitroamino)methyl]amino]-2-[[6-(acetylamino)hexanoyl]amino]-1-oxopentyl]amino]-3-methylbutyl]] showed an IC50 in experiment [1] of less than 10 nM. Besides, the EC50 in experiment [2] is greater than 10000 nM.
Consider `CCCCCCCCCC(=O)N[C@@H](CNC(=O)CCCCC)C(=O)N[C@@H](CC(C)C)B(O)O` [E.5.13, Boronic acid, [(1R)-1-[[(2S)-3-(hexanonylamino)-2-[(decanoylamino)]-1-oxopropyl]amino]-3-methylbutyl]], for which the IC50 in experiment [1] was less than 10 nM. Besides, the EC50 in experiment [2] is less than 200 nM.
The corresponding values for `CCCCC(C)CCC(=O)N[C@@H](CCCNC(=N)N[N+](=O)[O-])C(=O)N[C@@H](CC(C)C)B(O)O` (mixture of isomers) [E.2.39, Boronic acid, [(1R)-1-[[(2S)-5-[[imino(nitroamino)methyl]amino]-2-[((RS)-4-methyloctanoyl)amino]-1-oxopentyl]amino]-3-methylbutyl]] are less than 10 nM and 200 to 2000 nM.
In the same order, the values of `CCCCc1ccc(C(=O)N[C@@H](CNS(=O)(=O)c2ccc(F)cc2)C(=O)N[C@@H](CC(C)C)B2O[C@@H]3C[C@@H]4C[C@@H](C4(C)C)[C@]3(C)O2)cc1` [D.19, 4-Butylbenzamide, N-[(1S)-1-[[[(1R)-1-[(3aS,4S,6S,7aR)-hexahydro-3a,5,5-trimethyl-4,6-methano-1,3,2-benzodioxaborol-2-yl]-3-methylbutyl]amino]carbonyl]-2-[4-fluoro-benzenesulfonammide]ethyl]-] are less than 10 nM and less than 200 nM.
For `CCCCCCCCCC(=O)N[C@@H](CCCNC(N)=O)C(=O)N[C@@H](CC(C)C)B(O)O` [E.1.29, Boronic acid, [(1R)-1-[[(2S)-2-[(decanoyl)amino]-1-oxo-5-ureido-pentyl]amino]-3-methylbutyl]], the IC50 in experiment [1] is less than 10 nM. Moreover, in experiment [2], the EC50 is 200 to 2000 nM.
The corresponding values for `CCCCc1ccc(C(=O)N[C@@H](CNC(=O)c2ccc(-n3cncn3)cc2)C(=O)N[C@@H](CC(C)C)B(O)O)cc1` [E.5.40, Boronic acid, [(1R)-1-[[(2S)-3-(4-(1H-1,2,4-triazol-1-yl)benzoylamide)]-2-[(4-butylbenzoyl)amino]-1H-oxopropyl]amino]-3-methylbutyl] hydrochloride] are less than 10 nM and less than 200 nM.
The corresponding values for `COC(=O)CCCC(=O)N[C@@H](CCCNC(=N)N[N+](=O)[O-])C(=O)N[C@@H](CC(C)C)B1O[C@@H]2C[C@@H]3C[C@@H](C3(C)C)[C@]2(C)O1` [D.2.1, 4-(methoxycarbonyl)butanamide,N-[(1S)-1-[[[(1R)-1-[(3aS,4S,6S,7aR)-hexahydro-3a,5,5-trimethyl-4,6-methano-1,3,2-benzodioxaborol-2-yl]-3-methylbutyl]amino]carbonyl]-4-[[imino(nitroamino)methyl]amino]butyl]] are less than 10 nM and 200 to 2000 nM.
The compound `CCCCOCC(=O)N[C@@H](CCCNC(=N)N[N+](=O)[O-])C(=O)N[C@@H](CC(C)C)B(O)O` [E.1.7, Boronic acid, [(1R)-1-[[(2S)-5-[[imino (nitroamino)methyl]amino]-2-[(2-butoxyacetyl)amino]-1-oxopentyl]amino]-3-methylbutyl]] came in with an IC50 in experiment [1] of less than 10 nM. For the same compound, the EC50 in experiment [2] is 2000 to 10000 nM.
The compound `CC(C)C[C@H](NC(=O)[C@@H](NC(=O)c1ccc(-c2ccccc2)cc1)[C@@H](C)O)B1O[C@@H]2C[C@@H]3C[C@@H](C3(C)C)[C@]2(C)O1` [D.8.6, 4-Phenylbenzamide, N-[(1S,2R)-1-[[[(1R)-1-[(3aS,4S,6S,7aR)-hexahydro-3a,5,5-trimethyl-4,6-methano-1,3,2-benzodioxaborol-2-yl]-3-methylbutyl]amino]carbonyl]-2-hydroxypropyl]] returned an IC50 in experiment [1] of less than 10 nM. Further, the EC50 in experiment [2] was less than 200 nM.
